In patent US9079888B2, “Compounds as histamine H3 receptor ligands” (Suven Life Sciences Limited, priority 2011, dated 2015):
Where two headings read alike, the source gives them in different places.

Assays:
Male Wister rats = test: Object Recognition Task Model; format: in vivo; details: rat; for Exploration time mean ± S.E.M, Familiar object / Exploration time mean ± S.E.M, Novel object: choice trial T2 24 h after T1
Procedure: (§1) The cognition enhancing properties of compounds of this invention were estimated by using this model.
Male Wister rats (230-280 grams) obtained from N. I. N. (National Institute of Nutrition, Hyderabad, India) was used as experimental animals. Four animals were housed in each cage. Animals were kept on 20% food deprivation before one day and given water ad libitum throughout the experiment and maintained on a 12 hours light/dark cycle. Also the rats were habituated to individual arenas for 1 hour in the absence of any objects.
One group of 12 rats received vehicle (1 mL/Kg) orally and another set of animals received compound of the formula (I) either orally or i.p., before one hour of the familiar (T1) and choice trial (T2).
The experiment was carried out in a 50×50×50 cm open field made up of acrylic. In the familiarization phase, (T1), the rats were placed individually in the open field for 3 minutes, in which two identical objects (plastic bottles, 12.5 cm height×5.5 cm diameter) covered in yellow masking tape alone (a1 and a2) were positioned in two adjacent corners, 10 cms from the walls. After 24 hours of the (T1) trial for long-term memory test, the same rats were placed in the same arena as they were placed in T1 trial. Choice phase (T2) rats were allowed to explore the open field for 3 minutes in presence of one familiar object (a3) and one novel object (b) (Amber color glass bottle, 12 cm high and 5 cm in diameter). Familiar objects presented similar textures, colors and sizes. During the T1 and T2 trial, explorations of each object (defined as sniffing, licking, chewing or having moving vibrissae whilst directing the nose towards the object at a distance of less than 1 cm) were recorded separately by stopwatch. Sitting on an object was not regarded as exploratory activity, however, it was rarely observed.
T1 is the total time spent exploring the familiar objects (a1+a2).
T2 is the total time spent exploring the familiar object and novel object (a3+b).
The object recognition test was performed as described by Ennaceur, A., Delacour, J., 1988, A new one-trial test for neurobiological studies of memory in rats—Behavioural data, Behay. Brain Res., 31, 47-59.

[1] = Rodent Pharmacokinetic Study; details: male, Wistar, rat, whole blood
Procedure: (§2) Male Wistar rats (230-280 grams) obtained from NIN (National Institute of Nutrition, Hyderabad, India) were used as an experimental animal. Three animals were housed in each cage. Animals were kept fasted over night and maintained on a 12 hours light/dark cycle. Three rats were dosed New chemical entity (NCE) orally (3 or 10 mg/kg) and intravenously (1 or 5 mg/kg) on day 0 and day 2.
(§3) At each time point blood was collected by jugular vein. Blood was stored at 2-8° C. until analysis. The concentrations of the NCE compound in blood were determined using LC-MS/MS method. Schedule time points: Pre dose 0.08, 0.25, 0.5, 1, 2, 4, 6, 8 and 24 hours after dosing (n=3). The NCE compounds were quantified in blood by partially validated LC-MS/MS method using acetonitrile precipitation technique. […] Study samples were analyzed using calibration samples in the batch and quality control samples spread across the batch.
(§4) Pharmacokinetic parameters were calculated by non-compartmental model using software WinNonlin version 5.0.1.

[2] = Rodent Brain Penetration Study; format: in vivo, Male Wister rats; details: brain / whole blood; Wistar/Male rat, Per Oral, 3 mg/kg, vehicle water; read-out: Brain Penetration Ratio (Cbrain/Cblood)
Procedure: Three animals were housed in each cage. Animals were given water and food ad libitum throughout the experiment, and maintained on a 12 hours light/dark cycle.
New chemical entity (NCE) was dissolved in suitable vehicle and administered orally (3 or 10 mg/kg). […] Blood and brain tissue were collected and brain was homogenized to yield 20% w/v. Blood was stored at 2-8° C. and brain homogenate was frozen at −20° C. until analysis. The concentrations of NCE in blood and brain were quantified using LC-MS/MS method.
Extents of brain-blood ratio were calculated (Cbrian/Cblood)

[3] = target: Human or Rat Histamine H3 Receptor; test: Binding assay for human or rat Histamine H3 receptor ([3H] R-α-methylhistamine displacement); details: radioligand [3H] R-α-methylhistamine 3.0 nM; receptor source rat brain frontal cortex or recombinant human cDNA in CHO cells (table does not say which)
Procedure: The reaction was terminated by rapid vacuum filtration onto the glass fiber filters. Radioactivity trapped onto the filters was determined and compared to the control values in order to ascertain any interactions of the test compound(s) with either cloned human or rat receptor binding site.

[4] = male, Wistar, rat, in vivo
Procedure: as §2, §3, §4

in vivo = details: male, Wistar, rat, po, 3 mg/kg
Procedure: as §2, §3, §4

[5] = system: Scopolamine Induced amnesia; test: Morris Water Maze; format: in vivo, rats; details: rat, active dose p.o.
Procedure: as §1
The water maze apparatus consisted of a circular pool (1.8 m diameter, 0.6 m high) constructed in black Perspex (TSE systems, Germany) filled with water (24±2° C.) and positioned underneath a wide-angled video camera to track animal. The 10 cm^2 perspex platform, lying 1 cm below the water surface, was placed in the centre of one of the four imaginary quadrants, which remained constant for all rats. The black Perspex used in the construction of the maze and platform offered no intramaze cues to guide escape behavior. By contrast, the training room offered several strong extramaze visual cues to aid the formation of the spatial map necessary for escape learning. An automated tracking system, [Videomot 2 (5.51), TSE systems, Germany] was employed. This program analyzes video images acquired via a digital camera and an image acquisition boards that determined path length, swim speed and the number of entries and duration of swim time spent in each quadrant of the water maze.

SMILES: Cl.Cl.O=C(CN1CCOCC1)Nc1ccc(OC2CCN(C3CCC3)CC2)cc1F [Example 3, N-[4-(1-Cyclobutylpiperidin-4-yloxy)-2-fluorophenyl]-2-(morpholin-4-yl)acetamide dihydrochloride]
- Inference (Male Wister rats; 3 mg/kg p.o.): Active
- Exploration time mean ± S.E.M, Familiar object (Male Wister rats; 3 mg/kg p.o.): 6.77 ± 0.44 s
- Exploration time mean ± S.E.M, Novel object (Male Wister rats; 3 mg/kg p.o.): 12.49 ± 1.59 s
- AUC(0-t) ([1]; iv, 1 mg/kg): 173 ± 60 ng·h/mL
- half-life ([1]; iv, 1 mg/kg): 33.6 ± 11.4 min
- AUC(0-t) ([1]; po, 3 mg/kg): 174 ± 43 ng·h/mL
- Cmax ([1]; po, 3 mg/kg): 129 ± 34 ng/mL
- Tmax ([1]; po, 3 mg/kg): 25.2 ± 8.4 min
- bioavailability ([1]; po, 3 mg/kg): 35 ± 5%
- half-life ([1]; po, 3 mg/kg): 87.6 ± 45 min
- Kp [2]: 2.07 ± 0.07
- Ki [3]: 14.9 nM

SMILES: Cl.Cl.O=C(CN1CCOCC1)Nc1ccc(OC2CCN(C3CCC3)CC2)cc1 [Example 1, N-[4-(1-Cyclobutylpiperidin-4-yloxy)phenyl]-2-(morpholin-4-yl)-acetamide dihydrochloride]
- Inference (Male Wister rats; 0.3 mg/kg p.o.): Active
- Exploration time mean ± S.E.M, Familiar object (Male Wister rats; 0.3 mg/kg p.o.): 5.56 ± 0.81 s
- Exploration time mean ± S.E.M, Novel object (Male Wister rats; 0.3 mg/kg p.o.): 15.36 ± 1.74 s
- AUCt ([4]; iv, 1 mg/kg): 263 ± 21 ng·h/mL
- AUCt ([4]; po, 3 mg/kg): 626 ± 118 ng·h/mL
- Kp [2]: 0.93 ± 0.05
- Cmax (in vivo): 349 ± 35 ng/mL
- Tmax (in vivo): 25.2 ± 8.4 min
- bioavailability (in vivo): 79 ± 11%
- Reversal of Scopolamine Induced amnesia [5]: ≦1 mg/kg, p.o.
